Experimental data: publication PMC3408433, “Selective Cytotoxicity of Amidinopiperidine Based Compounds Towards Burkitt’s Lymphoma Cells Involves Proteasome Inhibition” (PLoS ONE, 2012)

Experiments:
Thrombin = target: Thrombin; parameters: method as in PMID 15497744, PMID 15544050, PMID 17484277; details: amidolytic assay, chromogenic substrate; determined previously; cited from earlier work
α-chymotrypsin = α-chymotrypsin (Bos taurus, UniProt P00766); test: α-Chymotrypsin inhibition assay
Procedure: In short, a 1 nM solution of α-chymotrypsin was mixed with various concentrations of the substrate Suc-Ala-Ala-Pro-Phe-AMC. All the solutions were prepared in 144 mM Tris–HCl, pH 7.8. Substrate hydrolysis was monitored at 30°C on an automated Tecan Safire^2 microplate reader (Tecan, Mannedorf/Zürich, Switzerland). The initial rates of the reactions (ΔF/Δt) were measured immediately after the addition of the substrate (within 200 s) and plotted versus substrate concentration with nonlinear regression to fit a Michaelis-Menten plot. The curve fit and kinetic parameters (Km and v max) were calculated using GraphPad PRISM version 5.0 software (GraphPad Software, Inc., CA, USA). […] The initial velocities of the hydrolysis reactions were measured under the same conditions as described for the determination of Km. 50 µl of α-chymotrypsin solution was added to 50 µl of each inhibitor solution (prepared in 144 mM Tris–HCl, pH 7.8; final concentration 1 nM) and incubated at 30°C for 15 min. The reaction was initiated with the addition of 100 µl of substrate. […] The Ki values were determined as mean values of all measurements.

[1] = tested on: p65 and p50 translocation in Ramos cells; test: Subcellular fractionation and Western blot of p65 and p50; format: cell-based, human; details: 50 µM
Procedure: (§1) Ramos cells were seeded in 6-well culture plates at a concentration of 1×10^6 cells/mL and treated with the compound of interest or corresponding vehicle for 1 h, 2 h or 6 h. After the indicated time points, cells were harvested, washed in ice-cold PBS and lysed in modified RIPA buffer (50 mM Tris-HCl, pH 7.4, 150 mM NaCl, 1% NP−40, 0.25% Na-deoxycholate, 1 mM EDTA, 1 µg/mL aprotinin, 1 mM PMSF and 1× Halt Phosphatase inhibitor cocktail (Thermo Scientific, Pierce Biotechnology, IL, USA)). The lysates were sonicated, rocked on ice for 30 min and centrifuged at 13,000 rpm at 4°C for 15 min. Protein samples were electrophoresed in SDS-polyacrylamide gels and then transferred to nitrocellulose membranes. The primary antibodies used were against ubiquitin, phospho-IκBα, IκBα, p65 and caspase-3 (Cell Signaling, Danvers/MA, USA), and p105/p50 (Santa Cruz Biotechnology, Inc., Santa Cruz/CA, USA), and ß-actin (Sigma-Aldrich). Following incubation with the primary antibody, membranes were washed six times and incubated for 1 h at room temperature with the corresponding dilution of the appropriate secondary antibody conjugated with horseradish peroxidase (Upstate, Temecula, CA, USA). The immunoreactivity of respective proteins of interest was determined by chemiluminescence using the SuperSignal West Femto substrate (Pierce, IL, USA), in accordance with the manufacturer's instructions. […]

20S proteasome = target: T1, 20S proteasome (Homo sapiens, UniProt P28072+P28074+Q99436); test: Rapid dilution assay (reversibility); format: biochemical
T1 construct: purchased Boston Biochem, Inc
Procedure: The enzyme-inhibitor complex was diluted 100-fold with the substrate of interest to a final volume of 200 µL, initiating the reaction. In the case of reversibility of the inhibitor the residual enzyme activity was expected to be around 90%.

[2] = tested on: human T cell leukaemia (Jurkat); test: Metabolic activity assay (MTS), Jurkat; format: cell-based; details: 50 µM, 24 h
Procedure: Compounds 11, and 14–16 were further tested for selective cytotoxicity. The experiments were conducted on freshly isolated primary peripheral blood mononuclear cells (PBMC) and three other haematological cancers: human T cell leukaemia (Jurkat), human histiocytic lymphoma (U937) and human Burkitt’s lymphoma (Daudi). An MTS assay was performed following 24 h of treatment with the compound of interest at 50 µM. […] The inhibition of proliferation in Ramos cells, mediated with compounds 15 and 16, was concentration dependent.
(§2) Cells (1×10^5 cells/mL for Ramos, Daudi, U937 and Jurkat, and 1×10^6 cells/mL for PBMC) were treated with the appropriate amounts of compounds of interest or corresponding vehicle (control cells), then seeded in triplicate in 96 well plates. The metabolic activity was assessed using the CellTiter 96® Aqueous One Solution Cell Proliferation Assay (Promega, Madison/WI, USA), in accordance with the manufacturer’s instructions.

[3] = tested on: Ramos Burkitt’s lymphoma cells; test: Metabolic activity assay (MTS), Ramos; format: cell-based, human; details: 24 h; for residual metabolic activity relative to control: 50 µM; for cytotoxicity group (Figure 3A) / viability at 100 µM: 100 µM; for viability at 100 µM: Homo sapiens, read-out: residual metabolic activity relative to untreated control
Procedure: When investigating the potency of selected serine protease inhibitors to induce cell death in human B lymphoma cells, we identified a set of compounds cytotoxic for Burkitt’s lymphoma. Using a metabolic activity assay (MTS), we evaluated the proliferation rate of Ramos Burkitt’s lymphoma cells, in the presence of serine protease inhibitors. Cells were treated for 24 h with the compound of interest at concentrations of 100 µM (1–13, 15, 16) or 50 µM (14). After a comparison of metabolic activity relative to that in the untreated control, three groups with distinct modes of action were determined (Figure 3A). […] The second group (compounds 1–3, 5, 7 and 13) caused a moderate decrease (50% to 80%) relative to untreated cells. The last group of compounds (11, 15, 16) severely impaired the metabolic activity, such that it fell to under 6%.
as §2

[4] = tested on: procaspase-3 cleavage in Ramos cells; test: Western blot analysis of caspase-3 processing; format: cell-based, human; details: compound 50 µM, zVad-fmk 50 µM
Procedure: as §1

[5] = tested on: p105 and IκBα in Ramos cells; test: Western blot analysis of phospho-p105, p105, phospho-IκB and IκB; format: cell-based, human; details: total level of both molecules remained the same
Procedure: as §1

Trypsin = target: Trypsin; parameters: method as in PMID 15497744, PMID 15544050, PMID 17484277; details: amidolytic assay, chromogenic substrate; determined previously; cited from earlier work
[6] = tested on: ubiquitinated proteins in Ramos cells; test: Western blot analysis of ubiquitinated proteins; format: cell-based, human; details: 6 h treatment
Procedure: as §1

Compound	Ki (Thrombin) [µM]	Ki (α-chymotrypsin) [µM]	translocation of p65 and p50 from the cytoplasm into the nucleus [1]	reversibility of proteasome inhibition (20S proteasome)	residual metabolic activity relative to control [2]	residual metabolic activity relative to control [3]	cytotoxicity group (Figure 3A) [3]	viability at 100 µM [3] [%]	compound-induced procaspase-3 cleavage after zVad-fmk pretreatment [4]	levels of p105 and IκBα (phosphorylated forms) [5]	Ki (Trypsin) [µM]	polyubiquitinated proteins [6]
N=C(N)N1CCC(CN(NS(=O)(=O)c2ccc3ccccc3c2)C(=O)N2CCCCC2)CC1 [Compound 15]	0.47	27.6	no translocation of p65 and p50	reversibly inhibit	no or only moderate decreases	severe and selective decrease	severely cytotoxic (severely impaired the metabolic activity, such that it fell to under 6%)	< 6	completely blocked	accumulation of the phosphorylated forms of p105 and IκBα	39	–
N=C(N)N1CCC(CN(NS(=O)(=O)c2ccc3ccccc3c2)C(=O)N2CCCCCC2)CC1 [Compound 16]	0.5	28.7	–	reversibly inhibit	no or only moderate decreases	severe and selective decrease	severely cytotoxic (severely impaired the metabolic activity, such that it fell to under 6%)	< 6	completely blocked	–	66	increased amount of polyubiquitinated proteins
